target: T1, Transient receptor potential cation channel subfamily V member 1 (Homo sapiens, UniProt Q8NER1); test: Antagonist activity at human TRPV1 receptor expressed in CHO cells assessed as decrease in capsaicin-induced intracellular 45Ca2+ uptake after 1 hr by […] analysis; type: functional, cell-based; details: not given
T1 sequence (Q8NER1 whole entry): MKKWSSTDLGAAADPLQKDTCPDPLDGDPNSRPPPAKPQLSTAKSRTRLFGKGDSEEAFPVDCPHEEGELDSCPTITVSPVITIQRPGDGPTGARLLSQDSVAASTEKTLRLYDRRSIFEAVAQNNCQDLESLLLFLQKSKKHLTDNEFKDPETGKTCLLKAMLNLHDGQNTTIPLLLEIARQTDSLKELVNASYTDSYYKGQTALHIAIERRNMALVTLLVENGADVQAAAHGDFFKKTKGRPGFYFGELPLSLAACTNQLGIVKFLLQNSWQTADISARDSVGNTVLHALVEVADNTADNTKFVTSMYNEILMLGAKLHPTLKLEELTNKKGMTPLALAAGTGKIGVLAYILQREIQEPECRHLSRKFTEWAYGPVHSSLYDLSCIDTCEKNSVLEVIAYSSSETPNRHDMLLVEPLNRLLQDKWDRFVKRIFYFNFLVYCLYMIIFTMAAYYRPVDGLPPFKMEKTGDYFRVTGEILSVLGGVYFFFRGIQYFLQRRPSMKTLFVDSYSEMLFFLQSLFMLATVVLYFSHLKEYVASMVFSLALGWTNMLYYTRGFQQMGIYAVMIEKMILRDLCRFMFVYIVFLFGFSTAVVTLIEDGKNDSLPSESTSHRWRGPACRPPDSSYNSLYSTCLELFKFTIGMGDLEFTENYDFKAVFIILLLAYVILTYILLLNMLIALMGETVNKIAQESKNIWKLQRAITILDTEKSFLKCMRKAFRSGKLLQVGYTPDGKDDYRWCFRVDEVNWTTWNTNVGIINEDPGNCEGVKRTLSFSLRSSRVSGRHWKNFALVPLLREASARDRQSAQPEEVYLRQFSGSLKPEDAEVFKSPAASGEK

Going from `C[C@@H](C(=O)NCc1ccc(C(C)(C)C)cc1)c1ccc(NS(C)(=O)=O)c(F)c1` to `CC(C(=O)NCc1ccc(C(C)(C)C)cc1)c1ccc(NS(C)(=O)=O)c(F)c1` (racemic), the Ki falls from 217 nM to 5.1 nM (43-fold).

Work on `C[C@H](C(=O)NCc1ccc(C(C)(C)C)cc1)c1ccc(NS(C)(=O)=O)c(F)c1` yielded a Ki of 0.49 nM.

target: T2, Transient receptor potential cation channel subfamily V member 1 (Rattus norvegicus, UniProt O35433); test: Displacement of [3H]RTX from rat TRPV1 receptor expressed in CHO cells after 60 mins by scintillation counting; type: cell-based; details: cho
T2 sequence (O35433 whole entry): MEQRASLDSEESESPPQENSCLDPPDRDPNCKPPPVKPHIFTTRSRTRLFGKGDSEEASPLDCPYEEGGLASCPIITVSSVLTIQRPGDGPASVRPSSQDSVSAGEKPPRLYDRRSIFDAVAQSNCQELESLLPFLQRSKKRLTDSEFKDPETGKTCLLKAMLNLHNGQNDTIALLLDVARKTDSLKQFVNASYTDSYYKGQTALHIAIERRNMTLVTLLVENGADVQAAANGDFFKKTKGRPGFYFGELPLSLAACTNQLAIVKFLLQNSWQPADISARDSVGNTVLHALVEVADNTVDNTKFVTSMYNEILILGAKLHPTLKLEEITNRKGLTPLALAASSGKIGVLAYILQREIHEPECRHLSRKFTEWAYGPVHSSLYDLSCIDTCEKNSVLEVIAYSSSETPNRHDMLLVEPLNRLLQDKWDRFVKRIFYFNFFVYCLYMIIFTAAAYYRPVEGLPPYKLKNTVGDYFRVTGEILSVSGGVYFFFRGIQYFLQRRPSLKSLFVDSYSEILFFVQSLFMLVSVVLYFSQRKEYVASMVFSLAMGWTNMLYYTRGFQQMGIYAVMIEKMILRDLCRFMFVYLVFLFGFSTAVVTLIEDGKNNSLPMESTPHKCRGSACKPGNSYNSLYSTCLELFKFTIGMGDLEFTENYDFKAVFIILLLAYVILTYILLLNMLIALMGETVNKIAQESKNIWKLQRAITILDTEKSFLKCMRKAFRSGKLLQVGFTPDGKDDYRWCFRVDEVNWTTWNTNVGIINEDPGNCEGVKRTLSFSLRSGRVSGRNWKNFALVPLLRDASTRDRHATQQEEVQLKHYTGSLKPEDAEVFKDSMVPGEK

`CC(C(=O)NCc1ccc(C(C)(C)C)cc1)c1ccc(NS(C)(=O)=O)c(N2CCCCC2)c1` (centres undefined) was tested, and the Ki was “Active”.
`CC(C(=O)NCc1ccc(C(C)(C)C)cc1)c1ccc(NS(C)(=O)=O)c(N2CCOCC2)c1` (centres undefined) was tested, and the Ki was “Active”.

same assay, conditions: read-out: Ki

Going from `C[C@@H](C(=O)NCc1ccc(C(C)(C)C)cc1)c1ccc(NS(C)(=O)=O)c(F)c1` to `CC(C(=O)NCc1ccc(C(C)(C)C)cc1)c1ccc(NS(C)(=O)=O)c(F)c1` (racemic), the Ki falls from 750 nM to 46.2 nM (16-fold). The second binds more tightly here.

Going from `CC(C(=O)NCc1ccc(C(C)(C)C)cc1)c1ccc(NS(C)(=O)=O)c(N2CCN(C(=O)OC(C)(C)C)CC2)c1` (centres undefined) to `Cc1cc(C(C)C(=O)NCc2ccc(C(C)(C)C)cc2)ccc1NS(C)(=O)=O` (centres undefined), the Ki falls from 7000 nM to 32.8 nM (210-fold).

In the case of `C[C@H](C(=O)NCc1ccc(C(C)(C)C)cc1)c1ccc(NS(C)(=O)=O)c(F)c1`, the Ki is reported as 24.4 nM.

target: T2, Transient receptor potential cation channel subfamily V member 1; test: Antagonist activity at rat TRPV1 receptor expressed in CHO cells assessed as decrease in capsaicin-induced intracellular 45Ca2+ uptake after 1 hr by […] analysis; type: functional, cell-based; details: not given

Going from `C[C@@H](C(=O)NCc1ccc(C(C)(C)C)cc1)c1ccc(NS(C)(=O)=O)c(F)c1` to `CC(C(=O)NCc1ccc(C(C)(C)C)cc1)c1ccc(NS(C)(=O)=O)c(F)c1` (racemic), the Ki falls from 186 nM to 7.6 nM (24-fold). The second binds more tightly here.

First: C[C@H](C(=O)NCc1ccc(C(C)(C)C)cc1)c1ccc(NS(C)(=O)=O)c(F)c1
Second: Cc1cc(C(C)C(=O)NCc2ccc(C(C)(C)C)cc2)ccc1NS(C)(=O)=O (centres undefined)
The Ki of the first is 4.5-fold lower: 4.16 nM for the first, 18.9 nM for the second. The first binds more tightly here.

target: Transient receptor potential cation channel subfamily V member 1 (Rattus norvegicus) (UniProt O35433); test: Antagonist activity at rat TRPV1 receptor expressed in CHO cells assessed as decrease in capsaicin-induced intracellular 45Ca2+ uptake after 1 hr by […] analysis relative to untreated control; type: functional, cell-based; details: not given
Sequence (O35433 whole entry): as above

First: CC(C(=O)NCc1ccc(C(C)(C)C)cc1)c1ccc(NS(C)(=O)=O)c(C(=O)OC(C)(C)C)c1 (centres undefined)
Second: CC(C(=O)NCc1ccc(C(C)(C)C)cc1)c1ccc(NS(C)(=O)=O)c(N2CCN(C(=O)OC(C)(C)C)CC2)c1 (centres undefined)
The Efficacy of the first is higher: 16% for the first, 13% for the second.

Going from `COc1cc(CNC(=S)NCc2ccc(C(C)(C)C)cc2)ccc1NS(C)(=O)=O` to `CC(C(=O)NCc1ccc(C(C)(C)C)cc1)c1ccc(NS(C)(=O)=O)c(C(=O)NCc2ccccc2)c1` (centres undefined), the Efficacy falls from 84% to 23%.

target: T1, Transient receptor potential cation channel subfamily V member 1; test: Antagonist activity at human TRPV1 receptor expressed in CHO cells assessed as decrease in pH-induced intracellular 45Ca2+ uptake after 1 hr by […] analysis; type: functional, cell-based; details: not given

First: C[C@@H](C(=O)NCc1ccc(C(C)(C)C)cc1)c1ccc(NS(C)(=O)=O)c(F)c1
Second: CC(C(=O)NCc1ccc(C(C)(C)C)cc1)c1ccc(NS(C)(=O)=O)c(F)c1 (racemic)
The Ki of the first is 35-fold higher: 440 nM for the first, 12.7 nM for the second.

`C[C@H](C(=O)NCc1ccc(C(C)(C)C)cc1)c1ccc(NS(C)(=O)=O)c(F)c1` gave a Ki of 8.3 nM.

target: T1, Transient receptor potential cation channel subfamily V member 1; test: Displacement of [3H]RTX from human TRPV1 receptor expressed in CHO cells after 60 mins by scintillation counting; type: cell-based; details: not given

Going from `C[C@@H](C(=O)NCc1ccc(C(C)(C)C)cc1)c1ccc(NS(C)(=O)=O)c(F)c1` to `CC(C(=O)NCc1ccc(C(C)(C)C)cc1)c1ccc(NS(C)(=O)=O)c(F)c1` (racemic), the Ki falls from 2590 nM to 89 nM (29-fold). The second binds more tightly here.

`C[C@H](C(=O)NCc1ccc(C(C)(C)C)cc1)c1ccc(NS(C)(=O)=O)c(F)c1` gave a Ki of 15.8 nM.

Source: ChEMBL document CHEMBL2040748, “N-4-t-Butylbenzyl 2-(4-methylsulfonylaminophenyl) propanamide TRPV1 antagonists: Structure-activity relationships in the A-region” (Bioorg Med Chem, 2012)
